This note sets out measurements from US12673975B2, “Cyclic peptide, cell scaffold material, cell separating material, and medium” (FUJIFILM Corporation, priority 2019, dated 2026).

Read-outs that look alike come from different tables or passages of the source. Starred links: 1 amine or outer side, 2 acyl side, 3 side chain; linkers in the order of their positions; H or OH if unused. Positions of bridges follow the written chain, without caps; N, C: chain ends. Non-standard residues stand in square brackets, D forms with d. Residues, ends and D or L forms follow the SMILES beside them. hCys = N[C@@H](CCS)C(=O)O; Orn = NCCC[C@H](N)C(=O)O; Dab = NCC[C@H](N)C(=O)O; Dap = NC[C@H](N)C(=O)O; X1 = O=C(C[*:2])[*:1]; X2 = O=C(C[*:1])[*:2] Where only a bound is given, the exact number is not on record here.

The nature of data set [1]: Evaluation of molecule stability (alkali treatment, residual rate by LC/MS). In kind it is physicochemical. The note with it: alkali treatment, residual rate by LC/MS. The method in brief:
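500 μM aqueous cyclic peptide mixed with an equal volume of 1 M NaOH and held 3 h at 15 °C. Residual rate is total LC/MS peak area after treatment relative to untreated (100%), using a C18 column, pH 3 ammonium formate/acetonitrile gradient, 45 °C, ESI±.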

For a further data set, the target named is human integrin αvβ5 (Homo sapiens, UniProt P06756+P18084). The data set can be described thus: Evaluation of integrin binding property (surface plasmon resonance, Biacore 3000, immobilized cyclic peptide). In a few lines:
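SPR with cyclic peptide amine-coupled via EDC/NHS to a CM5 chip, blank channel as reference. Integrin αvβ5 at 30, 100, 300 and 1,000 nM injected 10 min at 25 °C in HEPES buffer pH 7.4 with 5 mM MgCl2, 30 min buffer flow, EDTA regeneration; Kd from reference-subtracted signals, graded by category.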
(In general: In SPR one partner is held on a chip, and binding of the other changes the refractive index at the surface.)

Setting [2] is: surface plasmon resonance, immobilized cyclic peptide, human integrin αvβ5, read-out: Binding activity (integrin binding property, dissociation constant rank).

Chain of human integrin αvβ5 (P06756 31-1048): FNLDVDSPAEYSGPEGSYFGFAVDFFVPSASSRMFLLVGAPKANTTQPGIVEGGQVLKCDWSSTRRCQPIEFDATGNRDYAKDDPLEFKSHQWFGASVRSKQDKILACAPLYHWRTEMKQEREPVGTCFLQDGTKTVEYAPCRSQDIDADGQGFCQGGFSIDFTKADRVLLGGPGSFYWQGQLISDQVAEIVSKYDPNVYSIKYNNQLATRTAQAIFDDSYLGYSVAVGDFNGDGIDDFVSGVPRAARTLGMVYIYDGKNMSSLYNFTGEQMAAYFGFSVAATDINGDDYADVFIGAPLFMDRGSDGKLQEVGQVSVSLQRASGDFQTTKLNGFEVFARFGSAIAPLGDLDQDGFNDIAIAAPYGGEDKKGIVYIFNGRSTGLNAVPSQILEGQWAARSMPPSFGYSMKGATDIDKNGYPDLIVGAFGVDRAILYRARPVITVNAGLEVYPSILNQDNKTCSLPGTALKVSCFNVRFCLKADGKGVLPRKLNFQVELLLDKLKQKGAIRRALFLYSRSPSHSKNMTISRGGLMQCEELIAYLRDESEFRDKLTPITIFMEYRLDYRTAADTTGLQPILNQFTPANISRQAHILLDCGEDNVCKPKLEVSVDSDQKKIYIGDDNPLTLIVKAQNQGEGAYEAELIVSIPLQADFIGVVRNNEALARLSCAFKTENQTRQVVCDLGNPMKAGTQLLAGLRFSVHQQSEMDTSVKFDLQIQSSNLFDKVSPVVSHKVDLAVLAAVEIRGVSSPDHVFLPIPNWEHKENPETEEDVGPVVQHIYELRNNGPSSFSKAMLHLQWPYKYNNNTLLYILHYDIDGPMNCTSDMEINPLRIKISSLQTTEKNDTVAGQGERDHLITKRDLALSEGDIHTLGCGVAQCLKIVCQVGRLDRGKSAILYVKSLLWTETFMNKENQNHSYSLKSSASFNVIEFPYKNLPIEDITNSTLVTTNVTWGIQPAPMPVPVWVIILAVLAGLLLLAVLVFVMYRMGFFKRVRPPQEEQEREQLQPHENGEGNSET
Chain of human integrin αvβ5 (P18084 24-799): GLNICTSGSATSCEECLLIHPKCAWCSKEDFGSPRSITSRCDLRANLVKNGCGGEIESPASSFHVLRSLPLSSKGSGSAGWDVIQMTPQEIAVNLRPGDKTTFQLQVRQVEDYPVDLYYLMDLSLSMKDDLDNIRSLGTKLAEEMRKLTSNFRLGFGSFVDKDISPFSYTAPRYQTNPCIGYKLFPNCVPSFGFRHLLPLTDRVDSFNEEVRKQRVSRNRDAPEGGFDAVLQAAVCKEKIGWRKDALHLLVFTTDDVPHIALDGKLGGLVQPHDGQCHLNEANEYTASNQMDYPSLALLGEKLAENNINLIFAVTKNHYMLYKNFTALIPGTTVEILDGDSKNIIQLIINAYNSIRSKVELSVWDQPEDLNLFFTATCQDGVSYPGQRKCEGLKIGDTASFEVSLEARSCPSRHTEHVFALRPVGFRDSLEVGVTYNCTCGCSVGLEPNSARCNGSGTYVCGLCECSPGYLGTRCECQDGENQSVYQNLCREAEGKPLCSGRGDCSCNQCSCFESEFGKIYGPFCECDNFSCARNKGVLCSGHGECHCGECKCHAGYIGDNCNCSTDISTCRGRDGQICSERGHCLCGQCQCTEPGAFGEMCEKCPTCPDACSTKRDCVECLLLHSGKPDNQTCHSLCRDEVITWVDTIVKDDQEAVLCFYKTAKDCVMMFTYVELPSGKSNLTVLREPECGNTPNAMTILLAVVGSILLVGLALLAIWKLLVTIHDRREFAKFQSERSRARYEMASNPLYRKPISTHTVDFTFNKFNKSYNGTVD

As to `CC(C)[C@@H]1NC(=O)[C@@H](NC(=O)CNC(=O)[C@H](CCCCN)NC(=O)[C@H](CCCCN)NC(=O)[C@@H](N)CCCCN)CCSCC(=O)NCC[C@@H](C(=O)NCC(=O)O)NC(=O)[C@H](C)NC(=O)[C@H](Cc2ccccc2)NC(=O)[C@H]([C@@H](C)O)NC(=O)[C@H](CC(=O)O)NC(=O)CNC(=O)[C@H](CCCNC(=N)N)NC(=O)[C@@H]2CCCN2C1=O` [Cyclic peptide 105, KKKG-(Hcy)-VPRGDTFA(Dab(acetyl))G] (H-KKKG[hCys]VPRGDTFA[Dab]G-OH; linker 5-14 via X2), in data set [1], the “Stability (molecule stability, residual rate of the cyclic peptide rank)” value is given as “A (The residual rate of the cyclic peptide is 70% or more.)”. Also, the Kd at human integrin αvβ5 is < 50 nM.
As for `CC(C)[C@@H]1NC(=O)[C@@H](NC(=O)CNC(=O)[C@H](CCCCN)NC(=O)[C@H](CCCCN)NC(=O)[C@@H](N)CCCCN)CCSCC(=O)NCC[C@@H](C(=O)N[C@@H](C)C(=O)O)NC(=O)[C@H](C)NC(=O)[C@H](Cc2ccccc2)NC(=O)[C@H]([C@@H](C)O)NC(=O)[C@H](CC(=O)O)NC(=O)CNC(=O)[C@H](CCCNC(=N)N)NC(=O)[C@@H]2CCCN2C1=O` [Cyclic peptide 106, KKKG-(Hcy)-VPRGDTFA(Dab(acetyl))A] (H-KKKG[hCys]VPRGDTFA[Dab]A-OH; linker 5-14 via X2), the “Stability (molecule stability, residual rate of the cyclic peptide rank)” value in data set [1] is “A (The residual rate of the cyclic peptide is 70% or more.)”. In addition, the Kd at human integrin αvβ5 (setting [2]) was < 50 nM.
The matching figures for `CC(C)[C@@H]1NC(=O)[C@@H](NC(=O)[C@H](C)NC(=O)[C@H](CCCCN)NC(=O)[C@H](CCCCN)NC(=O)[C@@H](N)CCCCN)CCSCC(=O)NCC[C@@H](C(=O)NCC(=O)O)NC(=O)[C@H](C)NC(=O)[C@H](Cc2ccccc2)NC(=O)[C@H]([C@@H](C)O)NC(=O)[C@H](CC(=O)O)NC(=O)CNC(=O)[C@H](CCCNC(=N)N)NC(=O)[C@@H]2CCCN2C1=O` [Cyclic peptide 107, KKKA-(Hcy)-VPRGDTFA(Dab(acetyl))G] (H-KKKA[hCys]VPRGDTFA[Dab]G-OH; linker 5-14 via X2): “A (The residual rate of the cyclic peptide is 70% or more.)” and < 50 nM.
The matching figures for `CC(C)[C@@H]1NC(=O)[C@@H](NC(=O)[C@H](C)NC(=O)[C@H](CCCCN)NC(=O)[C@H](CCCCN)NC(=O)[C@@H](N)CCCCN)CCSCC(=O)NCC[C@@H](C(=O)N[C@@H](C)C(=O)O)NC(=O)[C@H](C)NC(=O)[C@H](Cc2ccccc2)NC(=O)[C@H]([C@@H](C)O)NC(=O)[C@H](CC(=O)O)NC(=O)CNC(=O)[C@H](CCCNC(=N)N)NC(=O)[C@@H]2CCCN2C1=O` [Cyclic peptide 108, KKKA-(Hcy)-VPRGDTFA(Dab(acetyl))A] (H-KKKA[hCys]VPRGDTFA[Dab]A-OH; linker 5-14 via X2): “A (The residual rate of the cyclic peptide is 70% or more.)” and < 50 nM.
The matching figures for `CC(C)[C@@H]1NC(=O)[C@@H](NC(=O)[C@H](C)N)CCSCC(=O)NCC[C@@H](C(=O)N[C@@H](C)C(=O)N[C@@H](CCCCN)C(=O)N[C@@H](CCCCN)C(=O)N[C@@H](CCCCN)C(=O)O)NC(=O)[C@H](C)NC(=O)[C@H](Cc2ccccc2)NC(=O)[C@H]([C@@H](C)O)NC(=O)[C@H](CC(=O)O)NC(=O)CNC(=O)[C@H](CCCNC(=N)N)NC(=O)[C@@H]2CCCN2C1=O` [Cyclic peptide 109, A-(Hcy)-VPRGDTFA(Dab(acetyl))AKKK] (H-A[hCys]VPRGDTFA[Dab]AKKK-OH; linker 2-11 via X2): “A (The residual rate of the cyclic peptide is 70% or more.)” and < 50 nM.
`CC(C)[C@@H]1NC(=O)[C@@H](NC(=O)[C@H](C)NC(=O)[C@H](CCCCN)NC(=O)[C@H](CCCCN)NC(=O)[C@H](CCCCN)NC(=O)[C@@H](N)CCCCN)CCSCC(=O)NCC[C@@H](C(=O)N[C@@H](C)C(=O)O)NC(=O)[C@H](C)NC(=O)[C@H](Cc2ccccc2)NC(=O)[C@H]([C@@H](C)O)NC(=O)[C@H](CC(=O)O)NC(=O)CNC(=O)[C@H](CCCNC(=N)N)NC(=O)[C@@H]2CCCN2C1=O` [Cyclic peptide 110, KKKKA-(Hcy)-VPRGDTFA(Dab(acetyl))A] (H-KKKKA[hCys]VPRGDTFA[Dab]A-OH; linker 6-15 via X2): the “Stability (molecule stability, residual rate of the cyclic peptide rank)” value in data set [1] is reported as “A (The residual rate of the cyclic peptide is 70% or more.)”. For the same compound, the Kd on human integrin αvβ5 (setting [2]) is < 50 nM.
The like results for `CC(C)[C@@H]1NC(=O)[C@@H](NC(=O)[C@H](C)NC(=O)[C@H](CCCCN)NC(=O)[C@H](CCCCN)NC(=O)[C@H](CCCCN)NC(=O)[C@H](CCCCN)NC(=O)[C@@H](N)CCCCN)CCSCC(=O)NCC[C@@H](C(=O)N[C@@H](C)C(=O)O)NC(=O)[C@H](C)NC(=O)[C@H](Cc2ccccc2)NC(=O)[C@H]([C@@H](C)O)NC(=O)[C@H](CC(=O)O)NC(=O)CNC(=O)[C@H](CCCNC(=N)N)NC(=O)[C@@H]2CCCN2C1=O` [Cyclic peptide 111, KKKKKA-(Hcy)-VPRGDTFA(Dab(acetyl))A] (H-KKKKKA[hCys]VPRGDTFA[Dab]A-OH; linker 7-16 via X2) were, in that order, “A (The residual rate of the cyclic peptide is 70% or more.)” and < 50 nM.
The like results for `CC(C)[C@@H]1NC(=O)[C@@H](NC(=O)[C@H](C)NC(=O)[C@H](CCCCN)NC(=O)[C@H](CCCCN)NC(=O)[C@H](CCCCN)NC(=O)[C@H](CCCCN)NC(=O)[C@H](CCCCN)NC(=O)[C@@H](N)CCCCN)CCSCC(=O)NCC[C@@H](C(=O)N[C@@H](C)C(=O)O)NC(=O)[C@H](C)NC(=O)[C@H](Cc2ccccc2)NC(=O)[C@H]([C@@H](C)O)NC(=O)[C@H](CC(=O)O)NC(=O)CNC(=O)[C@H](CCCNC(=N)N)NC(=O)[C@@H]2CCCN2C1=O` [Cyclic peptide 112, KKKKKKA-(Hcy)-VPRGDTFA(Dab(acetyl))A] (H-KKKKKKA[hCys]VPRGDTFA[Dab]A-OH; linker 8-17 via X2) were, in that order, “A (The residual rate of the cyclic peptide is 70% or more.)” and < 50 nM.
The like results for `CC(C)[C@@H]1NC(=O)[C@H](CC(=O)O)NC(=O)CNC(=O)[C@H](CCCNC(=N)N)NC(=O)[C@H]([C@@H](C)O)NC(=O)[C@H](C(C)C)NC(=O)[C@@H](NC(=O)[C@H](C)NC(=O)[C@H](CCCCN)NC(=O)[C@H](CCCCN)NC(=O)[C@@H](N)CCCCN)CCSCC(=O)NCC[C@@H](C(=O)N[C@@H](C)C(=O)O)NC(=O)[C@H]([C@@H](C)O)NC(=O)[C@H](Cc2ccccc2)NC1=O` [Cyclic peptide 113, KKKA-(Hcy)-VTRGDVFT(Dab(acetyl))A] (H-KKKA[hCys]VTRGDVFT[Dab]A-OH; linker 5-14 via X2) were, in that order, “A (The residual rate of the cyclic peptide is 70% or more.)” and 50 to 100 nM.
As for `CC[C@H](C)[C@@H]1NC(=O)[C@@H](NC(=O)CNC(=O)[C@H](CCCCN)NC(=O)[C@H](CCCCN)NC(=O)[C@@H](N)CCCCN)CCSCC(=O)NC[C@@H](C(=O)N[C@@H](C)C(=O)O)NC(=O)[C@H](CCCNC(=N)N)NC(=O)[C@H](Cc2ccccc2)NC(=O)[C@H]([C@@H](C)O)NC(=O)[C@H](CC(=O)O)NC(=O)CNC(=O)[C@H](CCCNC(=N)N)NC(=O)[C@@H]2CCCN2C1=O` [Cyclic peptide 114, KKKG-(Hcy)-IPRGDTFR(Dap(acetyl))A] (H-KKKG[hCys]IPRGDTFR[Dap]A-OH; linker 5-14 via X2), the “Stability (molecule stability, residual rate of the cyclic peptide rank)” value in data set [1] is “B (The residual rate of the cyclic peptide is 50% or more and less than 70%.)”. For the same compound, the Kd on human integrin αvβ5 (setting [2]) is < 50 nM.
For `CC[C@H](C)[C@@H]1NC(=O)[C@@H](NC(=O)CNC(=O)[C@H](CCCCN)NC(=O)[C@H](CCCCN)NC(=O)[C@@H](N)CCCCN)CCSCC(=O)NCCC[C@@H](C(=O)N[C@@H](C)C(=O)O)NC(=O)[C@H](CCCNC(=N)N)NC(=O)[C@H](Cc2ccccc2)NC(=O)[C@H]([C@@H](C)O)NC(=O)[C@H](CC(=O)O)NC(=O)CNC(=O)[C@H](CCCNC(=N)N)NC(=O)[C@@H]2CCCN2C1=O` [Cyclic peptide 115, KKKG-(Hcy)-IPRGDTFR(Orn(acetyl))A] (H-KKKG[hCys]IPRGDTFR[Orn]A-OH; linker 5-14 via X2), in data set [1], the “Stability (molecule stability, residual rate of the cyclic peptide rank)” value is “A (The residual rate of the cyclic peptide is 70% or more.)”. The Kd at human integrin αvβ5 (setting [2]) was < 50 nM.
As to `CC[C@H](C)[C@@H]1NC(=O)[C@@H](NC(=O)CNC(=O)[C@H](CCCCN)NC(=O)[C@H](CCCCN)NC(=O)[C@@H](N)CCCCN)CCSCC(=O)NCCCC[C@@H](C(=O)N[C@@H](C)C(=O)O)NC(=O)[C@H](CCCNC(=N)N)NC(=O)[C@H](Cc2ccccc2)NC(=O)[C@H]([C@@H](C)O)NC(=O)[C@H](CC(=O)O)NC(=O)CNC(=O)[C@H](CCCNC(=N)N)NC(=O)[C@@H]2CCCN2C1=O` [Cyclic peptide 116, KKKG-(Hcy)-IPRGDTFR(Lys(acetyl))A] (H-KKKG[hCys]IPRGDTFRKA-OH; linker 5-14 via X2), in data set [1], the “Stability (molecule stability, residual rate of the cyclic peptide rank)” value was “A (The residual rate of the cyclic peptide is 70% or more.)”. Further, on human integrin αvβ5 (setting [2]), the Kd was < 50 nM.
`CC[C@H](C)[C@@H]1NC(=O)[C@@H](NC(=O)CNC(=O)[C@H](CCCCN)NC(=O)[C@H](CCCCN)NC(=O)[C@@H](N)CCCCN)CNC(=O)CSCC[C@@H](C(=O)N[C@@H](C)C(=O)O)NC(=O)[C@H](CCCNC(=N)N)NC(=O)[C@H](Cc2ccccc2)NC(=O)[C@H]([C@@H](C)O)NC(=O)[C@H](CC(=O)O)NC(=O)CNC(=O)[C@H](CCCNC(=N)N)NC(=O)[C@@H]2CCCN2C1=O` [Cyclic peptide 117, KKKG(Dap(acetyl))IPRGDTFR-(Hcy)-A] (H-KKKG[Dap]IPRGDTFR[hCys]A-OH; linker 5-14 via X1): the “Stability (molecule stability, residual rate of the cyclic peptide rank)” value in data set [1] was “B (The residual rate of the cyclic peptide is 50% or more and less than 70%.)”. Moreover, the Kd at human integrin αvβ5 (setting [2]) was < 50 nM.
